Drawing on PubChem BioAssay (NCI), this text covers TGI for 22 compounds.

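Each compound was tested at five concentrations against cells in 96-well plates for 48 hours. The concentration for full growth arrest is given as TGI.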 Some results are limits rather than exact numbers.

Common to all, as to assay: growth of human tumour cells (NCI), 48 h
The subject of assay [1] is MDA-MB-435.
Assay [2] deals with TK-10 renal.
Assay [3] concerns CCRF-CEM leukemia.
Assay [4] concerns SK-MEL-28 melanoma.
Assay [5] concerns MCF7 breast.
Assay [6] concerns 786-0 renal.
Assay [7] relates to OVCAR-8 ovarian.
Assay [8] deals with PC-3 prostate.
Assay [9] has as its system MOLT-4 leukemia.
For assay [10], the system named is SF-295 CNS.
In assay [11] the test system is SK-MEL-5 melanoma.
The test system of assay [12] is RXF 393 renal.

As to `C1=C(c2ccccc2)C(N2CCOCC2)Oc2ccccc21` (centres undefined), the TGI in [1], in [2], in [3], in assay [4], in assay [5] and in [6] was > 100 µM throughout. The TGI in [7], in assay [8], in assay [9], in assay [10], in [11] and in assay [12] was > 100 µM in each case.
As for `COC(=O)c1ccccc1C1CN=NC12Cc1c(ccc3c1CCC3)C2=O` (centres undefined), the TGI was 56.2 µM in assay [1]; > 100 µM in [2]; > 100 µM in [3]; > 100 µM in assay [4]; > 100 µM in assay [5]; > 100 µM in assay [6]. Besides, the TGI in assay [7] was > 100 µM; in assay [8], > 100 µM; in assay [9], > 100 µM; in assay [10] it was > 100 µM; in [11], 58.6 µM; in assay [12], > 100 µM.
In the case of `Cc1cccc2c(N)c3cccc(C(=O)NCC[N+](C)(C)Cc4ccc([N+](=O)[O-])s4)c3nc12`, the TGI was > 63.9 µM in assay [1]; > 100 µM in assay [2]; 24.4 µM in assay [3]; > 100 µM in [4]; > 51.9 µM in assay [5]; 27.8 µM in assay [6]. The TGI was 42.9 µM in assay [7]; 30.5 µM in [8]; 9.36 µM in [9]; > 100 µM in assay [10]; 28.2 µM in [11]; 25.9 µM in [12].
Take `C=C(C(=O)O[C@H]1C/C(C)=C/CC/C(CO)=C/[C@H]2C(=O)OC(=C)[C@H]12)C(O)CO` (some centres undefined): the TGI worked out at 26.3 µM in assay [1]; 20.3 µM in [2]; 4.92 µM in assay [3]; 30.8 µM in assay [4]; 25.6 µM in assay [5]; 18.4 µM in assay [6]. Besides, the TGI in [7] was 40.1 µM; in [8] it was 22.2 µM; in assay [9] it was 13.2 µM; in [10], > 60.8 µM; in assay [11], 29.1 µM; in [12], 25.9 µM.
As for `COc1ccc(-n2c(=O)c3[nH]c(=S)[nH]c3n(-c3ccc(OC)cc3)c2=S)cc1`, the TGI in assay [1], in assay [2], in [3], in assay [4], in assay [5] and in [6] was > 100 µM in each case. The TGI in assay [7], in assay [8], in [9], in assay [10], in assay [11] and in [12] was > 100 µM in each case.
For the compound `CC1=NN(c2cccc(Cl)c2)C2(C1=Cc1ccc(O)cc1)C(Cl)C(=O)N2c1nc2ccccc2s1` (centres undefined), the TGI in assay [1] is 83.4 µM; in assay [2], > 100 µM; in [3], > 100 µM; in assay [4], > 100 µM; in assay [5] it was 98.4 µM; in assay [6] it was 80.6 µM. Moreover, the TGI stood at 87.8 µM in assay [7]; 51.9 µM in [8]; 44.2 µM in [9]; 57 µM in [10]; 39.8 µM in assay [11]; 47.9 µM in [12].
For `CSC(=S)Nc1cc(C)cc(C)n1`, the TGI in [1], in assay [2], in [3], in [4], in assay [5] and in assay [6] was > 31.6 µM throughout. Further, the TGI in [7] is > 31.6 µM; in assay [8] it was > 31.6 µM; in assay [9] it was > 31.6 µM; in assay [10], > 31.6 µM; in assay [11], > 100 µM; in [12] it was > 31.6 µM.
As for `N#CC1(C#N)C(C#N)(C#N)C1(C#N)C(N)=O`, the TGI in [1], in assay [2], in assay [3], in assay [4], in assay [5] and in assay [6] was > 100 µM in each case. In addition, the TGI in assay [7], in [8], in assay [9], in [10], in assay [11] and in [12] was > 100 µM in each case.
With `CC[C@@]1(O)C(=O)OCc2c1cc1n(c2=O)Cc2c-1nc1ccc(O)cc1c2[Si](C)(C)C(C)(C)C`, the TGI in [1] is 1.65 µM; in assay [2], > 92.7 µM; in assay [3], < 0.01 µM; in assay [4] it was 10.7 µM; in [5], > 41.2 µM; in assay [6], < 0.0255 µM. Moreover, the TGI in [7] was > 42.3 µM; in assay [8], 2.9 µM; in [9], 0.106 µM; in assay [10], 1.32 µM; in assay [11], 0.0387 µM; in assay [12] it was 0.0378 µM.
For the compound `CCCC[C@@H](C)/C=C1\CN2CCC[C@H]2[C@@](C)(OCc2ccccc2)[C@@H]1O`, the TGI in [1], in [2], in assay [3], in assay [4], in assay [5] and in [6] was > 50 µM throughout. Further, the TGI in assay [7], in assay [8], in assay [9], in assay [10], in [11] and in [12] was > 50 µM in each case.
`CCN1C/C(=C\c2ccc(Cl)cc2)c2nc(N)c(C#N)c(-c3ccc(Cl)cc3)c2C1`: the TGI in [1], in assay [2], in assay [3], in [4], in [5] and in assay [6] was > 100 µM in each case. Further, the TGI in assay [7], in assay [8], in assay [9], in [10], in [11] and in assay [12] was > 100 µM each time.
Turning to `O[C@@H]1C=C[C@]23CCN(Cc4cc5c(cc42)OCO5)[C@@H]3C1`, the TGI in [1], in assay [2], in assay [3], in assay [4], in assay [5] and in assay [6] was > 100 µM in each case. The TGI in assay [7], in assay [8], in assay [9], in [10], in assay [11] and in [12] was > 100 µM each time.
`Cc1nc2cc(F)c(F)cc2[nH]c1=O`: the TGI in assay [1], in assay [2], in assay [3], in [4], in assay [5] and in [6] was > 100 µM each time. Further, the TGI in assay [7], in assay [8], in assay [9], in assay [10], in assay [11] and in assay [12] was > 100 µM in each case.
With `Cc1cn(C2CCC(CO)(CF)O2)c(=O)[nH]c1=O` (centres undefined), the TGI in assay [1], in assay [2], in assay [3], in assay [4], in assay [5] and in assay [6] was > 100 µM throughout. In addition, the TGI in assay [7], in [8], in assay [9], in assay [10], in assay [11] and in [12] was > 100 µM each time.
As for `Cn1cnc(N)c(N=O)c1=O`, the TGI in assay [1], in assay [2], in [3], in [4], in assay [5] and in [6] was > 10 µM in each case. Further, the TGI in assay [7], in [8], in assay [9], in [10], in [11] and in assay [12] was > 10 µM throughout.
`CC1CC/C(=C\c2ccc(F)cc2)C2=C1C(c1ccc(F)cc1)N1C(=O)CSC1=N2` (centres undefined): the TGI in assay [1], in [2], in [3], in [4], in assay [5] and in [6] was > 100 µM in each case. The TGI was > 100 µM in [7]; > 100 µM in assay [8]; 60.6 µM in [9]; > 100 µM in assay [10]; > 100 µM in [11]; > 100 µM in assay [12].
`COc1cccc(N=N/C(=N/NC(=O)c2ccc(C)cc2)c2ccc(N(CCC#N)CCC#N)cc2OC)c1`: the TGI in [1], in assay [2], in [3], in [4], in assay [5] and in assay [6] was > 100 µM each time. For the same compound, the TGI in assay [7], in assay [8], in assay [9], in [10], in assay [11] and in assay [12] was > 100 µM in each case.
For the compound `COC(=O)C1=C(OC(=O)/C(=C/c2ccccc2)c2ccc(OC)cc2)C(C(=O)OC)[C@@]2(O)[C@@H](C(=O)OC)[C@H](C)C[C@@H]1[C@@H]2C(=O)OC` (some centres undefined), the TGI in assay [1], in [2], in [3], in [4], in [5] and in assay [6] was > 100 µM each time. The TGI in assay [7] was > 100 µM; in assay [8] it was > 100 µM; in assay [9], > 100 µM; in assay [10], > 100 µM; in assay [11] it was > 100 µM; in assay [12] it was 64.7 µM.
Regarding `Cc1cc(C)c2c(c1)CC1(Cc3cc(C)c(C)cc3C1=O)C2=O` (centres undefined), the TGI in assay [1], in assay [2], in [3], in assay [4], in assay [5] and in [6] was > 100 µM throughout. Besides, the TGI in assay [7], in assay [8], in [9], in [10], in [11] and in assay [12] was > 100 µM each time.
As to `CCOC(=O)c1ccc(Nc2nc3ccccc3nc2-c2cccs2)cc1`, the TGI is > 100 µM in [1]; 58.5 µM in assay [2]; > 100 µM in assay [3]; > 100 µM in [4]; > 100 µM in assay [5]; > 100 µM in assay [6]. Also, the TGI in assay [7], in assay [8], in [9], in [10], in assay [11] and in assay [12] was > 100 µM in each case.
Take `N#Cc1c(-c2ccc(Cl)cc2)cc(-c2ccc(Nc3ccnc4cc(Cl)ccc34)cc2)[nH]c1=O`: the TGI is > 100 µM in assay [1]; > 55.3 µM in assay [2]; 31.6 µM in assay [3]; > 100 µM in assay [4]; > 100 µM in assay [5]; > 100 µM in assay [6]. For the same compound, the TGI was > 100 µM in [7]; > 100 µM in [8]; > 100 µM in assay [9]; > 62.1 µM in assay [10]; > 100 µM in assay [11]; > 68 µM in [12].
Regarding `Cc1c(C(=O)c2ccc(N)c3ccccc23)c2ccccc2n1CCN1CCOCC1`, the TGI was 37 µM in assay [1]; > 82.2 µM in [2]; > 100 µM in [3]; > 100 µM in assay [4]; 70.9 µM in [5]; 80.6 µM in assay [6]. Further, the TGI was > 94.5 µM in assay [7]; > 100 µM in assay [8]; > 67.7 µM in [9]; 48.5 µM in assay [10]; 33.7 µM in [11]; 67.7 µM in assay [12].
